Data reported in patent US10004724B2, “Compounds alpha v beta 6 integrin antagonists” (GlaxoSmithKline Intellectual Property Development Limited, priority 2014, dated 2018).

Legend:
Assay type in all cases: cell-based
K562-αvβ5 (Vitronectin) = molecular target: T1, K562-αvβ5 (Vitronectin) (Homo sapiens, UniProt P06756+P18084); experiment: Cell Adhesion Assay αvβ5; settings: K562-αvβ5 cells, ligand Vitronectin, 2 mM MgCl2, BCECF-AM fluorescence; read-out: mean affinity (pIC50) αvβ5 (converted)
T1 construct: expressed in transfected cells; host or cells: K562
Experimental: (§1) The divalent cation used to facilitate adhesion was 2 mM MgCl2. Adhesion was quantified by cell labelling with the fluorescent dye BCECF-AM (Life Technologies), where cell suspensions at 3×10^6 cells/mL were incubated with 0.33 mL/mL of 30 mM BCECF-AM at 37° C. for 10 minutes, before dispensing into the assay plate. At the assay conclusion cells that adhered were lysed using 50 μL/well of 0.5% Triton X-100 in H2O to release fluorescence. Fluorescence intensity was detected using an Envision® plate reader (Perkin Elmer).

K562-αvβ8 (LAP-b1) = molecular target: T2, K562-αvβ8 (LAP-b1) (Homo sapiens, UniProt P06756+P26012); experiment: Cell Adhesion Assay αvβ8; settings: K562-αvβ8 cells, ligand LAP-b1, 2 mM MgCl2, BCECF-AM fluorescence; read-out: mean affinity (pIC50) αvβ8 (converted)
T2 construct: expressed in transfected cells; host or cells: K562
Experimental: as §1

K562-αvβ3 (LAP-b1) = molecular target: T3, K562-αvβ3 (LAP-b1) (Homo sapiens, UniProt P05106+P06756); experiment: Cell Adhesion Assay αvβ3; settings: K562-αvβ3 cells, ligand LAP-b1, 2 mM MgCl2, BCECF-AM fluorescence; read-out: mean affinity (pIC50) αvβ3 (converted)
T3 construct: expressed in transfected cells; host or cells: K562
Experimental: as §1

αvβ1 = αvβ1 (Homo sapiens, UniProt P05556+P06756); experiment: Cell Adhesion Assay αvβ1; settings: cell line and ligand for αvβ1 not listed in method, read-out: mean affinity (pIC50) αvβ1 (converted)
K562-αvβ6 (LAP-b1) = molecular target: T4, K562-αvβ6 (LAP-b1) (Homo sapiens, UniProt P06756+P18564); experiment: Cell Adhesion Assay αvβ6; settings: K562-αvβ6 cells, ligand LAP-b1, 2 mM MgCl2, BCECF-AM fluorescence; read-out: mean affinity (pIC50) αvβ6 (converted)
T4 construct: expressed in transfected cells; host or cells: K562
T4 sequence (P06756 31-889 limits assumed): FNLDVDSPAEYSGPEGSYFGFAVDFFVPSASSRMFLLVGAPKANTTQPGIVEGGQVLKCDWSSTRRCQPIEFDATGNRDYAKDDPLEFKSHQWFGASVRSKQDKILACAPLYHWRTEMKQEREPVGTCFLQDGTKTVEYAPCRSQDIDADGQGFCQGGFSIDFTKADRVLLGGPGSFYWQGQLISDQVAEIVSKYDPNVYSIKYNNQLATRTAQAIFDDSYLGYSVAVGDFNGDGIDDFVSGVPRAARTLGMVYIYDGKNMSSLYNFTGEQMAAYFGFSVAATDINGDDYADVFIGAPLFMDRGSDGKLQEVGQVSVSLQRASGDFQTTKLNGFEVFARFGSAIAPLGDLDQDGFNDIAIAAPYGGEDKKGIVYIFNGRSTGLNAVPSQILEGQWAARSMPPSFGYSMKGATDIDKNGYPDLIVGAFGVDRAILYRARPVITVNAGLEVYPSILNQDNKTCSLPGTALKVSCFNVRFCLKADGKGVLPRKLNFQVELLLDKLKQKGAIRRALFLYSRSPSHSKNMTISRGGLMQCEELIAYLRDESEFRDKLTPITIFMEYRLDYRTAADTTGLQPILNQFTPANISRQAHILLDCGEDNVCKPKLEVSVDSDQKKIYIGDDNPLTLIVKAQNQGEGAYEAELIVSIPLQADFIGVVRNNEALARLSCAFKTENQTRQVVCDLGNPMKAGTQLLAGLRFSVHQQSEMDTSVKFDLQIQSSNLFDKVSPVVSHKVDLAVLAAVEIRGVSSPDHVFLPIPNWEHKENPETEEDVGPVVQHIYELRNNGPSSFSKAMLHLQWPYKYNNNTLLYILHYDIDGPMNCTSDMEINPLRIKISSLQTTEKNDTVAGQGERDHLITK
T4 sequence (P06756 891-1048 limits assumed): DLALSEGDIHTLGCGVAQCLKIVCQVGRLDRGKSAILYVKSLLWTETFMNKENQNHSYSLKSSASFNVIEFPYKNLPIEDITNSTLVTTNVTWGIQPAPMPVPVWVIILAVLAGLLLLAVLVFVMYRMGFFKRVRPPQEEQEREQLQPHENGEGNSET
T4 sequence (P18564 22-788): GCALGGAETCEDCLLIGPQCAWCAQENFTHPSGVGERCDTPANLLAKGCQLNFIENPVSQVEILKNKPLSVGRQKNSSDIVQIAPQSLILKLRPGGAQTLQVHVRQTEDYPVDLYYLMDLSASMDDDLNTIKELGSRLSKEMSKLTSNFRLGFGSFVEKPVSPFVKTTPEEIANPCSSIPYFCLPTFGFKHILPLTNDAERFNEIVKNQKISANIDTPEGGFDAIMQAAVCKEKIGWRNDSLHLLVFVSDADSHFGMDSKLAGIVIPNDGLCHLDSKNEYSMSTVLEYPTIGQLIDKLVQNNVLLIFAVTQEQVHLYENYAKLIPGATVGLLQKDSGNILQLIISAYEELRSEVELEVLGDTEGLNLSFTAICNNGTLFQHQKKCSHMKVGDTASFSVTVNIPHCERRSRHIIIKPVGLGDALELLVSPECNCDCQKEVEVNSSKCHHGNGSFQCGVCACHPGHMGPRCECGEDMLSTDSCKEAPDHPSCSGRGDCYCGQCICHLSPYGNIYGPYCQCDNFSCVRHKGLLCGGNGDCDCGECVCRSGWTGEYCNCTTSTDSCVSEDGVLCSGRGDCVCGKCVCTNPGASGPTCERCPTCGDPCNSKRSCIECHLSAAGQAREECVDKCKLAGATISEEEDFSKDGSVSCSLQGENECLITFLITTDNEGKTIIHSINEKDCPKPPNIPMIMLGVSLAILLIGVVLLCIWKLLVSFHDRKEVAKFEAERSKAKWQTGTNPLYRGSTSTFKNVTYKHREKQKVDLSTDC
Experimental: as §1

T2 sequence (P06756 31-889 limits assumed): as the sequence (P06756 31-889 limits assumed) above
T2 sequence (P06756 891-1048 limits assumed): as the sequence (P06756 891-1048 limits assumed) above
T2 sequence (P26012 43-769): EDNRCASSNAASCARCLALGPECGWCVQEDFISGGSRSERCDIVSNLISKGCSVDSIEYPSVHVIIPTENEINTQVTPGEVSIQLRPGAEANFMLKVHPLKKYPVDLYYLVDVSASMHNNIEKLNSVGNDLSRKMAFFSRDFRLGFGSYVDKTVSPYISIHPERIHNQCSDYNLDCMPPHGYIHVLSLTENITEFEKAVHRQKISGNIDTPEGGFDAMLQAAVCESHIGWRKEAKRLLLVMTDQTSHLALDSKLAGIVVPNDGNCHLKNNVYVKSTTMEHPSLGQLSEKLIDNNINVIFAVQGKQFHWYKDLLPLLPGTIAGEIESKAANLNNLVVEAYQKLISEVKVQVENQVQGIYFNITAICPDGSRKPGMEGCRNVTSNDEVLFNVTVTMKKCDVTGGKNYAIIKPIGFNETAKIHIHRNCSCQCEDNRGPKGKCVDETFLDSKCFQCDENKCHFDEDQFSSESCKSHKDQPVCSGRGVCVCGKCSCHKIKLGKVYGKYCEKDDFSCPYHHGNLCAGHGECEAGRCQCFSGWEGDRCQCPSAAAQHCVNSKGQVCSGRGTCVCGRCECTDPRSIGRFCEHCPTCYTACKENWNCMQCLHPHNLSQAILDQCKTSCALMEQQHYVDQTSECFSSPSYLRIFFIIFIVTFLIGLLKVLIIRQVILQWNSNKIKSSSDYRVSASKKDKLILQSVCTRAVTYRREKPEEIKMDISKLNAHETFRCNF
T1 sequence (P06756 31-889 limits assumed): as the sequence (P06756 31-889 limits assumed) above
T1 sequence (P06756 891-1048 limits assumed): as the sequence (P06756 891-1048 limits assumed) above
T1 sequence (P18084 24-799): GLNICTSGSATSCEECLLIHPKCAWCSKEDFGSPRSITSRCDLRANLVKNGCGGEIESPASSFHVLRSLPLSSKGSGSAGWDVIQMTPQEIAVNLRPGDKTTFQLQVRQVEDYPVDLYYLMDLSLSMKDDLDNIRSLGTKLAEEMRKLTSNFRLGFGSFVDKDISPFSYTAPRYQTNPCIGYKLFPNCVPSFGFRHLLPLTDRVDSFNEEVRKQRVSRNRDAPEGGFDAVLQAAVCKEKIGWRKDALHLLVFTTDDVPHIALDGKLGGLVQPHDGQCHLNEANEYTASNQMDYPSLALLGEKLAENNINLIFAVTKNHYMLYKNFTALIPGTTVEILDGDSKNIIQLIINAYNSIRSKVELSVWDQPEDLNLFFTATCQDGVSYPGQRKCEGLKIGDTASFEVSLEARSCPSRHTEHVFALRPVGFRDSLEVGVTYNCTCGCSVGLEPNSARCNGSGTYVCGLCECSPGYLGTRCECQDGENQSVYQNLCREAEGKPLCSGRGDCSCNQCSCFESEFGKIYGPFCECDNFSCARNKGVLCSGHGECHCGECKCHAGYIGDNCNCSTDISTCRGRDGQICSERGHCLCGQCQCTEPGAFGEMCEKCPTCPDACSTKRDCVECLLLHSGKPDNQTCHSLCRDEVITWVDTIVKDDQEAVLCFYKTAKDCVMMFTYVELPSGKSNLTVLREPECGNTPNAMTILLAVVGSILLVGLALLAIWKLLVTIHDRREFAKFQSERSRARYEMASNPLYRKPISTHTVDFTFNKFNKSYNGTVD
T3 sequence (P06756 31-889 limits assumed): as the sequence (P06756 31-889 limits assumed) above
T3 sequence (P06756 891-1048 limits assumed): as the sequence (P06756 891-1048 limits assumed) above
T3 sequence (P05106 27-788): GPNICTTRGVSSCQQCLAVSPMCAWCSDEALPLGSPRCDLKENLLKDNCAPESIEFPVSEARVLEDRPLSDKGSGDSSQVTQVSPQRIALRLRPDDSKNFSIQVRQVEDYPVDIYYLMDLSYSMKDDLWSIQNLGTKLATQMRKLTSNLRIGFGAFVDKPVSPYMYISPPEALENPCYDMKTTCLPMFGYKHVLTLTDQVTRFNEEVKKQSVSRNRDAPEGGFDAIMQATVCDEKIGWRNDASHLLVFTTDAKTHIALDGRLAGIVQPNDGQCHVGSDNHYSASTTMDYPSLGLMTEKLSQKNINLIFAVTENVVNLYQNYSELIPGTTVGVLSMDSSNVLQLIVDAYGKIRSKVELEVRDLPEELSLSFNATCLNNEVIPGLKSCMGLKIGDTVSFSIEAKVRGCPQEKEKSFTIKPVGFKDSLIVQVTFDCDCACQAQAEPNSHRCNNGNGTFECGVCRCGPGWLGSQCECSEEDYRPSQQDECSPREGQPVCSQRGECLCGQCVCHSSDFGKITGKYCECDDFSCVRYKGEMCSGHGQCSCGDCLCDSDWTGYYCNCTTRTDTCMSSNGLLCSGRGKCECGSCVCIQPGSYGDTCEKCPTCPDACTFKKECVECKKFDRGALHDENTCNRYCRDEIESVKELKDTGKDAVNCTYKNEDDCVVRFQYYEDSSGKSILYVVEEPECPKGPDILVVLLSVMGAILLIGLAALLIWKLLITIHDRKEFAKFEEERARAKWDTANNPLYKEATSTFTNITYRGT

| Compound | IC50 (K562-αvβ5 (Vitronectin)) [nM] | IC50 (K562-αvβ8 (LAP-b1)) [nM] | IC50 (K562-αvβ3 (LAP-b1)) [nM] | IC50 (αvβ1) [nM] | IC50 (K562-αvβ6 (LAP-b1)) [nM] |
| --- | --- | --- | --- | --- | --- |
| Cc1ccn(-c2cc(C(CC(=O)O)CN3CC[C@@H](CCc4ccc5c(n4)NCCC5)C3)cc(N3CCOCC3)c2)n1 (mixture of isomers) [Example 4, 3-(3-(3-methyl-1H-pyrazol-1-yl)-5-morpholinophenyl)-4-((R)-3-(2-(5,6,7,8-tetrahydro-1,8-naphthyridin-2-yl)ethyl)pyrrolidin-1-yl)butanoic acid] | 158 | 31.6 | 6310 | – | – |
| O=C(O)C[C@H](CN1CC[C@@H](CCc2ccc3c(n2)NCCC3)C1)c1cc(-c2ccn[nH]2)cc(N2CCOCC2)c1 [Example 6, (S)-3-(3-Morpholino-5-(1H-pyrazol-5-yl)phenyl)-4-((R)-3-(2-(5,6,7,8-tetrahydro-1,8-naphthyridin-2-yl)ethyl)pyrrolidin-1-yl)butanoic acid] | 50.1 | 7.94 | 1260 | 10 | 3.16 |
| Cc1cc(-c2cc([C@H](CC(=O)O)CN3CC[C@@H](CCc4ccc5c(n4)NCCC5)C3)cc(N3CCOCC3)c2)[nH]n1 [Example 7, (S)-3-(3-(3-Methyl-1H-pyrazol-5-yl)-5-morpholinophenyl)-4-((R)-3-(2-(5,6,7,8-tetrahydro-1,8-naphthyridin-2-yl)ethyl)pyrrolidin-1-yl)butanoic acid] | 200 | 25.1 | 2000 | – | 10 |
| O=C(O)C[C@H](CN1CC[C@@H](CCc2ccc3c(n2)NCCC3)C1)c1cc(-c2cn[nH]c2)cc(N2CCOCC2)c1 [Example 8, (S)-3-(3-Morpholino-5-(1H-pyrazol-4-yl)phenyl)-4-((R)-3-(2-(5,6,7,8-tetrahydro-1,8-naphthyridin-2-yl)ethyl)pyrrolidin-1-yl)butanoic acid] | 63.1 | 5.01 | 3980 | – | 5.01 |
| O=C(O)C[C@H](CN1CC[C@@H](CCc2ccc3c(n2)NCCC3)C1)c1cc(N2CCOCC2)cc(-n2cccn2)c1 [Example 3, (S)-3-(3-morpholino-5-(1H-pyrazol-1-yl)phenyl)-4-((R)-3-(2-(5,6,7,8-tetrahydro-1,8-naphthyridin-2-yl)ethyl)pyrrolidin-1-yl)butanoic acid] | 200 | 15.8 | 3980 | 50.1 | 3.16 |
